Source: ChEMBL document CHEMBL3885881, “DrugMatrix”

Species on record: Rattus norvegicus
Assay: DrugMatrix - Regimen: Daily Repeat
Type: toxicity, organism-based, Sprague-Dawley
Design: regimen Daily Repeat, gender Male, age 6-8 weeks
Conditions: in vivo, iv, 20 mg/kg, dose level Low, vehicle 100 % SALINE; for ABSOLUTE BASOPHIL / ABSOLUTE EOSINOPHIL / ABSOLUTE LYMPHOCYTE / ABSOLUTE MONOCYTE / ABSOLUTE SEGMENTED NEUTROPHIL / BASOPHIL / EOSINOPHIL / ERYTHROCYTE COUNT / HEMATOCRIT / HEMOGLOBIN / LEUKOCYTE COUNT / LYMPHOCYTE / MEAN CORPUSCULAR HEMOGLOBIN / MONOCYTE / NEUTROPHIL / NUCLEATED RED BLOOD CELLS / PLATELET COUNT: tissue Blood; for ALANINE AMINOTRANSFERASE / ALBUMIN / ALKALINE PHOSPHATASE / ASPARTATE AMINOTRANSFERASE / BLOOD UREA NITROGEN / CARBON DIOXIDE / CHLORIDE / CHOLESTEROL / CREATINE PHOSPHOKINASE / CREATININE / GLUCOSE / LACTATE DEHYDROGENASE / LIPASE / PHOSPHORUS / POTASSIUM / SODIUM / TOTAL BILIRUBIN / TOTAL PROTEIN / URIC ACID: tissue Plasma

SMILES: CCC[C@@H]1C[C@@H](C(=O)N[C@@H]([C@H]2O[C@H](SC)[C@H](O)[C@@H](O)[C@H]2O)[C@H](C)Cl)N(C)C1 [CLINDAMYCIN]
- ABSOLUTE BASOPHIL (72 h, time 3 day): 0 CELLS/uL
- ABSOLUTE EOSINOPHIL (72 h, time 3 day): 40 CELLS/uL
- ABSOLUTE LYMPHOCYTE (72 h, time 3 day): 9607.67 CELLS/uL
- ABSOLUTE MONOCYTE (72 h, time 3 day): 40 CELLS/uL
- ABSOLUTE SEGMENTED NEUTROPHIL (72 h, time 3 day): 712.33 CELLS/uL
- BASOPHIL (72 h, time 3 day): 0%
- EOSINOPHIL (72 h, time 3 day): 0.33%
- ERYTHROCYTE COUNT (72 h, time 3 day): 5.49 x10E6/uL
- HEMATOCRIT (72 h, time 3 day): 34.93%
- HEMOGLOBIN (72 h, time 3 day): 13.7 G/DL
- LEUKOCYTE COUNT (72 h, time 3 day): 10.4 x10E3/uL
- LYMPHOCYTE (72 h, time 3 day): 92.67%
- MEAN CORPUSCULAR HEMOGLOBIN (72 h, time 3 day): 24.97 pg
- MONOCYTE (72 h, time 3 day): 0.33%
- NEUTROPHIL (72 h, time 3 day): 6.67%
- NUCLEATED RED BLOOD CELLS (72 h, time 3 day): 0 /100WBC
- PLATELET COUNT (72 h, time 3 day): 1194.33 x10E3/uL
- ALANINE AMINOTRANSFERASE (72 h, time 3 day): 42 u/L
- ALBUMIN (72 h, time 3 day): 4.4 G/DL
- ALKALINE PHOSPHATASE (72 h, time 3 day): 375.67 u/L
- ASPARTATE AMINOTRANSFERASE (72 h, time 3 day): 82.67 u/L
- BLOOD UREA NITROGEN (72 h, time 3 day): 19 mg/dL
- CARBON DIOXIDE (72 h, time 3 day): 35.33 mmol/L
- CHLORIDE (72 h, time 3 day): 97 MEQ/L
- CHOLESTEROL (72 h, time 3 day): 81.33 mg/dL
- CREATINE PHOSPHOKINASE (72 h, time 3 day): 250 u/L
- CREATININE (72 h, time 3 day): 0.19 mg/dL
- GLUCOSE (72 h, time 3 day): 124.33 mg/dL
- LACTATE DEHYDROGENASE (72 h, time 3 day): 260.67 u/L
- LIPASE (72 h, time 3 day): 11 u/L
- PHOSPHORUS (72 h, time 3 day): 9.63 mg/dL
- POTASSIUM (72 h, time 3 day): 6.58 MEQ/L
- SODIUM (72 h, time 3 day): 143.4 MEQ/L
- TOTAL BILIRUBIN (72 h, time 3 day): 0.17 mg/dL
- TOTAL PROTEIN (72 h, time 3 day): 6.4 G/DL
- URIC ACID (72 h, time 3 day): 0.87 mg/dL
- ABSOLUTE BASOPHIL (120 h, time 5 day): 0 CELLS/uL
- ABSOLUTE EOSINOPHIL (120 h, time 5 day): 97.33 CELLS/uL
- ABSOLUTE LYMPHOCYTE (120 h, time 5 day): 13386.67 CELLS/uL
- ABSOLUTE MONOCYTE (120 h, time 5 day): 100.67 CELLS/uL
- ABSOLUTE SEGMENTED NEUTROPHIL (120 h, time 5 day): 1348.67 CELLS/uL
- BASOPHIL (120 h, time 5 day): 0%
- EOSINOPHIL (120 h, time 5 day): 0.67%
- ERYTHROCYTE COUNT (120 h, time 5 day): 5.84 x10E6/uL
- HEMATOCRIT (120 h, time 5 day): 35.8%
- HEMOGLOBIN (120 h, time 5 day): 14.27 G/DL
- LEUKOCYTE COUNT (120 h, time 5 day): 14.93 x10E3/uL
- LYMPHOCYTE (120 h, time 5 day): 89.67%
- MEAN CORPUSCULAR HEMOGLOBIN (120 h, time 5 day): 24.47 pg
- MONOCYTE (120 h, time 5 day): 0.67%
- NEUTROPHIL (120 h, time 5 day): 9%
- NUCLEATED RED BLOOD CELLS (120 h, time 5 day): 0 /100WBC
- PLATELET COUNT (120 h, time 5 day): 1266.67 x10E3/uL
- ALANINE AMINOTRANSFERASE (120 h, time 5 day): 57.67 u/L
- ALBUMIN (120 h, time 5 day): 4.33 G/DL
- ALKALINE PHOSPHATASE (120 h, time 5 day): 400.67 u/L
- ASPARTATE AMINOTRANSFERASE (120 h, time 5 day): 85 u/L
- BLOOD UREA NITROGEN (120 h, time 5 day): 18.67 mg/dL
- CARBON DIOXIDE (120 h, time 5 day): 35.33 mmol/L
- CHLORIDE (120 h, time 5 day): 100.33 MEQ/L
- CHOLESTEROL (120 h, time 5 day): 70.67 mg/dL
- CREATINE PHOSPHOKINASE (120 h, time 5 day): 217 u/L
- CREATININE (120 h, time 5 day): 0.19 mg/dL
- GLUCOSE (120 h, time 5 day): 148.33 mg/dL
- LACTATE DEHYDROGENASE (120 h, time 5 day): 152.67 u/L
- LIPASE (120 h, time 5 day): 8.33 u/L
- PHOSPHORUS (120 h, time 5 day): 12.6 mg/dL
- POTASSIUM (120 h, time 5 day): 7.37 MEQ/L
- SODIUM (120 h, time 5 day): 144.4 MEQ/L
- TOTAL BILIRUBIN (120 h, time 5 day): 0.2 mg/dL
- TOTAL PROTEIN (120 h, time 5 day): 6.43 G/DL
- URIC ACID (120 h, time 5 day): 1.67 mg/dL
